Experimental data as given in PMC6154605, “Multi-Anti-Parasitic Activity of Arylidene Ketones and Thiazolidene Hydrazines against Trypanosoma cruzi and Leishmania spp” (Molecules : A Journal of Synthetic Chemistry and Natural …, 2017).
Like-named read-outs stand apart in the source and are kept apart here.

Assays:
[1] = tested on: L. braziliensis promastigotes; test: Leishmanicidal activity on promastigotes, resazurin; assay type: cell-based, Leishmania braziliensis
In short: (§1)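 Promastigotes (2 × 10^6/well) in Schneider's medium with 20% FBS treated with compound dilutions for 48 h at 26 °C. Resazurin reduction read at 570 and 600 nm; IC50 from duplicate experiments, triplicate concentrations.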

[2] = tested on: L. infantum promastigotes; test: as above; assay type: cell-based, Leishmania infantum; conditions: Leishmania infantum, 48 h; read-out: IC50 ± SD Promastigotes L. infantum
In short: as §1

NCTC929 fibroblasts = test: Nonspecific cytotoxicity on fibroblasts, resazurin; assay type: cell-based; conditions: NCTC-929, 24 h; read-out: IC50 ± SD Fibroblast NCTC929
In short: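 NCTC929 murine fibroblasts seeded 3.00 × 10^4 cells/well, grown overnight, then exposed to compounds for 24 h at 37 °C, 5% CO2. Viability read by resazurin reduction (3 h), dual-wavelength absorbance at 490 and 595 nm with background subtracted. Each concentration tested three times.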

[3] = biological target: T1, LmTIM (triosephosphate isomerase from Leishmania mexicana) (Leishmania mexicana, UniProt P48499); test: Inhibition of triosephosphate isomerase; assay type: biochemical; conditions: read-out: Percentage of Inhibition LmTIM
T1 construct: made in house; host or cells: Escherichia coli
Description: Compounds were dissolved in DMSO. […] The experiments were performed in triplicate.

zebrafish embryos = test: Zebrafish embryo toxicity test (LD50)
[4] = Drug bioconcentration in zebrafish embryos, UV-visible spectroscopy; assay type: in vivo; conditions: whole embryo extract, 25 µM, incubation 25 µM, volume of measurement 100 µL, read-out: conc. in zebrafish embryos
Description: To get an approximation of the distribution and concentration of GAT1033 (the lipophilic compound) in the embryos, in the presence and absence of the chorion, we conducted a first analysis visualizing the embryos by laser scanning confocal microscopy. […] We then quantified the internal concentration of GAT1033 by UV-visible spectroscopy (Figure 9). To do this, we incubated embryos, with and without chorion, with a fixed dose of the compound for different extensions of time. After this, we performed a standard chemical extraction and quantified using spectrophotometry and checking the integrity of the molecules by thin layer chromatography.
Following the same conditions as those of the embryo toxicity test, five embryos were incubated per well in 6-well plates with 5 mL of 25 μM GAT1033. Embryos were incubated with and without chorion, starting at 6 hpf. The incubation medium containing the compound was exchanged daily. Every 24 h, 30 embryos having the same conditions were taken to extract the compound for quantitation. The embryos were washed three times with aquarium water and then centrifuged at low speed to pull out the total remaining solvent. The embryos were then resuspended in 1 mL of aquarium water and lysed by sonication (Omni Sonic Ruptor Omni Sonic Ruptor 400 Ultrasonic Homogenizer) on an ice bath with 4-times half-intensity-15-second pulses, resting 5 seconds. The extract was incubated with 1 mL of methanol/chloroform (2:1) for 5 min at 25 °C, followed by five chloroform extractions. The organic phase was dried over anhydrous sodium sulfate and evaporated in vacuo. The crude extract was dissolved in 100 µL acetonitrile (Merck, HPLC grade) for spectrophotometric measurements (Spectrophotometer double beam UV-Vis model Cary 60 Agilent Cary WinUV). The calibration curve and all of the experiments were performed with GAT1033 under the same conditions. For this, we used the Beer–Lambert–Bouguer Law (BLB law). Optical data for GAT1033 are: ε = (14.7 ± 0.5) cm^−1mM^−1, λmax = 379 nm, emission 530 nm.

[5] = biological target: triosephosphate isomerase from T. cruzi (TcTIM) (Trypanosoma cruzi, UniProt P52270); test: Inhibition of triosephosphate isomerase; conditions: read-out: Percentage of Inhibition TcTIM
triosephosphate isomerase from T. cruzi (TcTIM), sequence (P52270 whole entry): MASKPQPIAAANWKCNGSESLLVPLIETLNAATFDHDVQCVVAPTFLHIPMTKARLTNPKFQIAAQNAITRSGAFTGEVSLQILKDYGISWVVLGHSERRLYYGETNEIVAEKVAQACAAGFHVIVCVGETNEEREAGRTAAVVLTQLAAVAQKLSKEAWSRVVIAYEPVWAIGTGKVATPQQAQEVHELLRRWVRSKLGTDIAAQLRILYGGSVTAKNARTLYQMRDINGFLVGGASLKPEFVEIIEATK
Description: Expression and purification of proteins: TcTIM, LmTIM and HsTIM were expressed in Escherichia coli and purified as described in the literature [39]. […] Before use, extensive dialysis against 100 mM triethanolamine/10 mM EDTA (pH 7.4) was performed.
Enzymatic activity assays: Enzymatic activity was determined following the conversion of glyceraldehyde 3-phosphate into dihydroxyacetone phosphate. […] The reaction mixture (1 mL, pH 7.4) contained 100 mM triethanolamine, 10 mM EDTA, 0.2 mM NADH, 1 mM glyceraldehyde 3-phosphate and 0.9 units of α-glycerol phosphate dehydrogenase. The reaction was initiated by the addition of 5 ng/mL of the TcTIM.
The mixture also contained the compounds at the indicated concentrations. Compounds were dissolved in DMSO. After 2 h, 10 µL was withdrawn and added to a final volume of 100 µL of the reaction mixture for the activity assay. The inhibition assay was performed in a 96-well microplate Varioskan spectrophotometer. […] The experiments were performed in triplicate.

T1 sequence (P48499 whole entry): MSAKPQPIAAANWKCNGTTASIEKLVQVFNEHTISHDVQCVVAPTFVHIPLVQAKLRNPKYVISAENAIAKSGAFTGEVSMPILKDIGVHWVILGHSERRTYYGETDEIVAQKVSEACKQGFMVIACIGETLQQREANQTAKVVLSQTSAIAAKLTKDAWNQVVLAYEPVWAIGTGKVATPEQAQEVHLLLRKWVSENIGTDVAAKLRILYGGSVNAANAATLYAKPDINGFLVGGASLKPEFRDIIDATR

## C=CCn1c(-c2ccc(Cl)cc2)cs\c1=N/N=C/C=C/c1ccco1 [GAT1033]
[1]; Leishmania braziliensis, 48 h, read-out: IC50 ± SD Promastigotes L. braziliensis
  IC50: 7 ± 1 µM
[1]; ratio IC50 mammalian cell / IC50 parasite (promastigotes)
  SI NCTC/ L. braziliensis: 58
[2]
  IC50: 2 ± 0.2 µM
NCTC929 fibroblasts
  IC50: 405 ± 10 µM
[3]
  inhibition at 100 µM: 0%
Zebrafish embryos; dechorionated zebrafish embryos, 72 h incubation
  LD50 without chorion: 27 ± 1 µM
Zebrafish embryos; zebrafish embryos with chorion
  LD50 with chorion: > 100 µM
[4]; with chorion
  concentration at 24 h: 0.3 µM
  concentration at 48 h: 4.8 µM
  concentration at 72 h: 1.8 µM
[4]; without chorion
  concentration at 24 h: 0.4 µM
  concentration at 48 h: 7.3 µM
  concentration at 72 h: 8.1 µM
[5]
  inhibition at 100 µM: 0%
